ChEMBL document CHEMBL1157753, “Stereochemical requirements for the mineralocorticoid receptor antagonist activity of dihydropyridines” (J Med Chem, 2010)

Columns and labels:
[1] = target: Voltage-gated L-type calcium channel (Rattus norvegicus, UniProt P22002+Q02485+P27732); test: Inhibition of L-type calcium channel in rat A10 cells assessed as inhibition of depolarization-induced increase in calcium flux after 10 mins by FLIPR assay
[2] = target: T1, Mineralocorticoid receptor (Homo sapiens, UniProt P08235)
T1 sequence (P08235 whole entry): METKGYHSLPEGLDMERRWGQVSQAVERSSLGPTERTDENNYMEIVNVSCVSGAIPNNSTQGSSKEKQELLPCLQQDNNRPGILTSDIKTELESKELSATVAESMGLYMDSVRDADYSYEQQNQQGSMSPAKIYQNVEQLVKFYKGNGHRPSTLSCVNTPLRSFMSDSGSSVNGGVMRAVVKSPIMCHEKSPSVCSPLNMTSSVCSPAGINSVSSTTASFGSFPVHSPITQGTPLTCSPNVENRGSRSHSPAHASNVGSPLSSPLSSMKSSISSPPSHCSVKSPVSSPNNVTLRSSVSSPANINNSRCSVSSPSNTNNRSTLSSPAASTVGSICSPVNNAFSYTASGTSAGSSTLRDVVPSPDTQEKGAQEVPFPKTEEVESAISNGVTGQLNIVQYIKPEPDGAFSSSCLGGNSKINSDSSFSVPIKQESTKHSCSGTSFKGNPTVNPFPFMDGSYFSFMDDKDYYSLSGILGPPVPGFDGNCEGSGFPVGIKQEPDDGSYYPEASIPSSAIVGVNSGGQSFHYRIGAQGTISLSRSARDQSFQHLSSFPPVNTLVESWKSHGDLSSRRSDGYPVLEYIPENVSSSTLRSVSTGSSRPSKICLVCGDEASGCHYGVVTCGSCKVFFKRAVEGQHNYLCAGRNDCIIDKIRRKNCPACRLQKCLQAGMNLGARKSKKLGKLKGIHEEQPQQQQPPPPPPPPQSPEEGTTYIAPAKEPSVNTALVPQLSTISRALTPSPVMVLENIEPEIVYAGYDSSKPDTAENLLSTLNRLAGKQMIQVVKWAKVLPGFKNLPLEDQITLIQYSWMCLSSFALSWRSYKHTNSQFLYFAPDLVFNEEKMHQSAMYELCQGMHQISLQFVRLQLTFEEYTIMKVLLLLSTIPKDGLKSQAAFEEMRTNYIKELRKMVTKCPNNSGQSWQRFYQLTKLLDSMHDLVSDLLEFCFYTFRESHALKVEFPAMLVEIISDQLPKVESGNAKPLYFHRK
Description: Antagonist activity at Gal4-fused mineralocorticoid receptor expressed in human HuH7 cells assessed as inhibition of aldosterone-induced receptor activation by luciferase reporter gene assay

[3] = target: T2, Progesterone receptor (Homo sapiens, UniProt P06401); test: Inhibition of progesterone receptor
T2 sequence (P06401 whole entry): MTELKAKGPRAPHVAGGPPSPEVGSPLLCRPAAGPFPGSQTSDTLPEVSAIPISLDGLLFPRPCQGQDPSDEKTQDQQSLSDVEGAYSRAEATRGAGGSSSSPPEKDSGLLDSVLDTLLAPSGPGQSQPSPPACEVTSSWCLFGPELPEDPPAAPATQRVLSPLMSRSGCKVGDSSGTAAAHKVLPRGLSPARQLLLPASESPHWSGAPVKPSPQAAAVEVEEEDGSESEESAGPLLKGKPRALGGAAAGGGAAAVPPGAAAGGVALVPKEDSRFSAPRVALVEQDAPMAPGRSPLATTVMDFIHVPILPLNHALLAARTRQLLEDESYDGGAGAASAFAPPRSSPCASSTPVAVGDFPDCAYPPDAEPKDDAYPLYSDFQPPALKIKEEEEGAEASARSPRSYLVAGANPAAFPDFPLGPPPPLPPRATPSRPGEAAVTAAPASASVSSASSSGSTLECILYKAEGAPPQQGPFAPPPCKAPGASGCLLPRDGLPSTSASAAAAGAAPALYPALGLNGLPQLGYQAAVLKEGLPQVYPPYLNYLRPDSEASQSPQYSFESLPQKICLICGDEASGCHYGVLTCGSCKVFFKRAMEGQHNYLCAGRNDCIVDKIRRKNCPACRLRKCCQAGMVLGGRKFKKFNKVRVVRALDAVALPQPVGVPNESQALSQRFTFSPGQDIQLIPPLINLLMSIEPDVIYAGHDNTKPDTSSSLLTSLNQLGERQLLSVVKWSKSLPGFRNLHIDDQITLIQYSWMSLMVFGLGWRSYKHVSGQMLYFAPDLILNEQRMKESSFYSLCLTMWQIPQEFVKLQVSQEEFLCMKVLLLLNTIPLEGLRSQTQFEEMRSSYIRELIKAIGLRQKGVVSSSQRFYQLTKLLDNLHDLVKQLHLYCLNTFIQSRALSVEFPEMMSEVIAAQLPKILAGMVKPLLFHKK

[4] = target: T3, Glucocorticoid receptor (Homo sapiens, UniProt P04150); test: Inhibition of glucocorticoid receptor
T3 sequence (P04150 whole entry): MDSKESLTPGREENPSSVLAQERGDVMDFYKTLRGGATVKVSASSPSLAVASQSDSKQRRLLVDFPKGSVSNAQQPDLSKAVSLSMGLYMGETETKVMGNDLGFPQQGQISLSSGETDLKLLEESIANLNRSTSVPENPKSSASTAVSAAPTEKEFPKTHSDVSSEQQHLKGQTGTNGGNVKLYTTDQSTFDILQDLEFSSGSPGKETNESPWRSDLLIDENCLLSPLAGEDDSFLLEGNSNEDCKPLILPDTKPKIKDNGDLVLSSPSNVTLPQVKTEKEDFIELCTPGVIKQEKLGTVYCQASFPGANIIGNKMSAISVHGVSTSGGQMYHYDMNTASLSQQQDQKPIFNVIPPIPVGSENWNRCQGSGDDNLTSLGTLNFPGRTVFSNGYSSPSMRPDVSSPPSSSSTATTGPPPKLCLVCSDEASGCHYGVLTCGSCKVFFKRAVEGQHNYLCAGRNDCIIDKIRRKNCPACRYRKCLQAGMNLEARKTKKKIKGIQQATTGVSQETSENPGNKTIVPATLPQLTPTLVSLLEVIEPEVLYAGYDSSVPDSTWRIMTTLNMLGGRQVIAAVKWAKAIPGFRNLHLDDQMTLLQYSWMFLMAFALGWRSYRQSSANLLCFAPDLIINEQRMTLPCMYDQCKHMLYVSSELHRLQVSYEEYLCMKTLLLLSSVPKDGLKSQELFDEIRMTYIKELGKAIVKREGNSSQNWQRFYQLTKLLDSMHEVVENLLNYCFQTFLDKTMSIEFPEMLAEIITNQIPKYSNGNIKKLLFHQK

[5] = target: T4, Androgen receptor (Homo sapiens, UniProt P10275); test: Inhibition of androgen receptor
T4 sequence (P10275 whole entry): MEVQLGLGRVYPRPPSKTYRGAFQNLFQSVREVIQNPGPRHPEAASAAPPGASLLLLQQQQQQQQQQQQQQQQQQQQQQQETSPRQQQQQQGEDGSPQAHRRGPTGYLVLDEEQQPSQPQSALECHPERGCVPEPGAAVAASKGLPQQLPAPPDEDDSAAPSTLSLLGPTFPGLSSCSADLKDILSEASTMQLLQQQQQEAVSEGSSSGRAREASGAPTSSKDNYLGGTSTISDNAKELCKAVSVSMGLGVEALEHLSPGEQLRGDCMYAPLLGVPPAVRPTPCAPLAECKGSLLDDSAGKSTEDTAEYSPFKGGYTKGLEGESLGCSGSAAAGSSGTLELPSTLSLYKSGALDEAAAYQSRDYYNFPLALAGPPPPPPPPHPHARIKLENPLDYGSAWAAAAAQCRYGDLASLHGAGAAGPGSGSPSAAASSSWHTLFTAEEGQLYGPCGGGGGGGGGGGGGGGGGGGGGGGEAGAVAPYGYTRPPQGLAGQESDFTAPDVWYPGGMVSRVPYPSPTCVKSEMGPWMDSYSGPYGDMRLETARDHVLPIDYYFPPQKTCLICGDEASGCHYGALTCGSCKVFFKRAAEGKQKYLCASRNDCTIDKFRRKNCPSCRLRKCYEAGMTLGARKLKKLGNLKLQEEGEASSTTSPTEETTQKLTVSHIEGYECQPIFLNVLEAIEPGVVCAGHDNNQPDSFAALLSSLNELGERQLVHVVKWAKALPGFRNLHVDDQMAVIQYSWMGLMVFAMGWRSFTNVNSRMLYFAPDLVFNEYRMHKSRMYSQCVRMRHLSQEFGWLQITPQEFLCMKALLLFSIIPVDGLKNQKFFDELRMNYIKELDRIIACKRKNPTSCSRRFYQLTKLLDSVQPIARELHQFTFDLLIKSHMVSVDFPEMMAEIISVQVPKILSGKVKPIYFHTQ

[6] = (§1) Half life in Sprague-Dawley rat at 2 mg/kg, iv by LC/MS/MS analysis; format: ADME, organism-based; set-up: dose 2 mg/kg, route intravenous; conditions: Sprague-Dawley, in vivo
[7] = target: T5, Estrogen receptor (Homo sapiens, UniProt P03372); test: Inhibition of estrogen receptor
T5 sequence (P03372 whole entry): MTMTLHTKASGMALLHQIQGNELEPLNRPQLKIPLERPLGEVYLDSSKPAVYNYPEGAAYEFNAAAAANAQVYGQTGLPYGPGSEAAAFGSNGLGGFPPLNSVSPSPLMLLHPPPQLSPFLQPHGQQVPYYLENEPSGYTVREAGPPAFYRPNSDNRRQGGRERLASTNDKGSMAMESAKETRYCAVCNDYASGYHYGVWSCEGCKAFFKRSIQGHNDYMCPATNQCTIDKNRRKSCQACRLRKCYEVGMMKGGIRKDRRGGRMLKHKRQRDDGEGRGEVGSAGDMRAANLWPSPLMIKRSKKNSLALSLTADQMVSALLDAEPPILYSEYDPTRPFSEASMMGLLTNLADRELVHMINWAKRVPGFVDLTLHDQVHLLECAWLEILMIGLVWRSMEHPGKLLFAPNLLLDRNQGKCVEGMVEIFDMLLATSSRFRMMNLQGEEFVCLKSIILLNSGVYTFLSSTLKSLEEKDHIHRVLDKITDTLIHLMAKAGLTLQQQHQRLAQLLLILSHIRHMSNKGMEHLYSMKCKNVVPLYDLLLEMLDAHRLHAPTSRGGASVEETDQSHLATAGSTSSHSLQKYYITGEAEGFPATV

[8] = Volume of distribution at steady state in Sprague-Dawley rat at 2 mg/kg, iv by LC/MS/MS analysis; format: ADME, organism-based; set-up: dose 2 mg/kg, route intravenous; conditions: in vivo, read-out: Vdss
[9] = Clearance in Sprague-Dawley rat at 2 mg/kg, iv by LC/MS/MS analysis; format: ADME, organism-based; set-up: dose 2 mg/kg, route intravenous; conditions: in vivo
[10] = system: Rattus norvegicus; test: as §1; format: ADME, organism-based; set-up: dose 2 mg/kg, route intravenous; conditions: in vivo

SMILES | IC50 [1] [nM] | IC50 [2] [nM] | further results
CCCC1=C(C(=O)OCC)[C@H](c2ccnc3ccccc23)C(C#N)=C(C)N1 | 2200 | 10 | IC50 [3]: 1340 nM; IC50 [4]: 270 nM; half-life [6]: 6.54 h; IC50 [7]: > 10000 nM; Vd [8]: 0.42 L/kg; clearance [9]: 9.7 mL/min/kg; IC50 [5]: 730 nM
CCCC1=C(C(=O)OCC)[C@@H](c2ccnc3ccccc23)C(C#N)=C(C)N1 | 1330 | 3280 | –
COC(=O)C1=C(CCl)NC(C)=C(C#N)[C@@H]1c1ccnc2ccccc12 | 11270 | 2800 | –
COC(=O)[C@@H]1CC2=CC(=O)CC[C@]2(C)[C@@]23O[C@@H]2C[C@@]2(C)[C@@H](CC[C@@]24CCC(=O)O4)[C@H]13 [EPLERENONE] | > 5000 | – | –
CCCC1=C(C(=O)OCC)C(c2ccnc3ccccc23)C(C#N)=C(C)N1 (racemic) | 1100 | 31 | –
COC(=O)C1=C(CCl)NC(C)=C(C#N)[C@H]1c1ccnc2ccccc12 | 7930 | 340 | –
COC(=O)C1=C(CCl)NC(C)=C(C#N)[C@@H]1c1ccc(F)cc1Cl | 570 | 2200 | –
COC(=O)C1=C(CCl)NC(C)=C(C#N)[C@H]1c1ccc(F)cc1Cl | 2070 | 41 | –

Second part, led by results:

IC50 [1] [nM] | IC50 [2] [nM] | SMILES | further results
> 1550 | 59 | CC1=C(C#N)C(c2ccc(F)cc2Cl)C(C(=O)OC(C)(C)C)=C(C)N1 (racemic) | –
> 0.5 | 536 | COC(=O)C1=C(C)NC(C)=C(C(=O)OC(C)(C)C)[C@H]1c1cccc([N+](=O)[O-])c1 | –
607 | 46 | COC(=O)C1=C(C)NC(C)=C(C(=O)OC(C)(C)C)[C@@H]1c1cccc([N+](=O)[O-])c1 | IC50 [3]: 768 nM; IC50 [4]: 3260 nM; IC50 [5]: 1270 nM
3840 | 3520 | CC1=C(C#N)[C@H](c2ccc(F)cc2Cl)C(C(=O)OC(C)(C)C)=C(C)N1 | –
– | 3.7 | CC1=C(C#N)[C@@H](c2ccc(F)cc2Cl)C(C(=O)OC(C)(C)C)=C(C)N1 | IC50 [3]: 3520 nM; IC50 [4]: 1370 nM; t1/2 [10]: 1.14 h; IC50 [7]: > 10000 nM; IC50 [5]: 246 nM
> 20 | 126 | COC(=O)C1=C(C)NC(C)=C(C(=O)OC(C)(C)C)C1c1cccc([N+](=O)[O-])c1 (racemic) [MEBUDIPINE] | –
7730 | 77 | COC(=O)C1=C(C)NC(C)=C(C#N)[C@H]1c1ccnc2ccccc12 | –
14570 | 469 | COC(=O)C1=C(C)NC(C)=C(C#N)[C@@H]1c1ccnc2ccccc12 | –
